Patent US20020051978A1, “Methods and compositions for the identification, assessment, prevention and therapy of human cancers” (priority 2000, published 2002)
Where “and” joins values, the source holds several entries; their conditions need not be identical. Identical values can stand only once. Like-named read-outs stand apart in the source and are kept apart here.

Key:
[1] = test system: 60 cancer cell lines (NCI 60 cancer cell line series); settings: cited from earlier work
[2] = test system: 60 cancer cell lines (NCI 60 cancer cell line series); experiment: NCI-DTP in vitro cancer screen, sulforhodamine B (SRB) growth inhibition, 48 hour exposure; assay type: cell-based, human; design: key to sensitivity class Ovarian OVCAR-8 CL6005 / sensitivity class Ovarian SK-OV-3 CL6011 / sensitivity class Prostate DU-145 CL11003 / sensitivity class NSCLC NCI-H522 CL1003 / sensitivity class Ovarian IGROV1 CL6010 / sensitivity class Ovarian OVCAR-4 CL6002 / sensitivity class Prostate PC-3(I) CL11001 / sensitivity class Renal A498 CL9013 / sensitivity class Renal SN12C CL9008: sensitivity class: 1 = Low, 2 = Medium, 3 = High; settings: for sensitivity class NSCLC NCI-H23(I) CL1001: cell line NSCLC NCI-H23(I); for sensitivity class NSCLC NCI-H460 CL1021: cell line NSCLC NCI-H460, CL1021; for sensitivity class NSCLC NCI-H522 CL1003: cell line NSCLC NCI-H522, CL1003; for sensitivity class Ovarian OVCAR-4 CL6002: cell line Ovarian OVCAR-4, CL6002; for sensitivity class Ovarian OVCAR-5 CL6003: cell line Ovarian OVCAR-5, CL6003; for sensitivity class Ovarian OVCAR-8 CL6005: cell line Ovarian OVCAR-8, CL6005; for sensitivity class Prostate DU-145 CL11003: cell line Prostate DU-145, CL11003; for sensitivity class Renal A498 CL9013: cell line Renal A498, CL9013; for sensitivity class Renal RXF-393 CL9016: cell line Renal RXF-393, CL9016; for sensitivity class Renal UO-31 CL9004: cell line Renal UO-31, CL9004
Procedure, shortened: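 Sixty NCI-DTP cancer lines plated at line-specific densities, dosed on day 1 in duplicate with 5 concentrations at ten-fold intervals. After 48 h exposure, cell mass read by SRB staining; GI50 (50% growth inhibition) taken from dose-response curves and expressed as -log GI50.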

CC[C@@]1(O)C(=O)OCc2c1cc1n(c2=O)Cc2cc3c(CN(C)C)c(O)ccc3nc2-1 [Topotecan]
-Log (GI50) ([1]; Breast MCF7(I) (CL5001)): 8.0 and 7.8
-Log (GI50) ([1]; Breast T-47D (CL5014)): 8.0 and 7.7
-Log (GI50) ([1]; CNS SF-268 CL12014): 7.7
-Log (GI50) ([1]; CNS SF-539 CL12016): 7.7 and 7.8
-Log (GI50) ([1]; CNS SNB-19 (CL12002)): 7.5 and 7.6
-Log (GI50) ([1]; CNS U251(I) CL12009): 7.5 and 7.8
-Log (GI50) ([1]; Colon HCT-15 CL4015): 6.2 and 6.3
-Log (GI50) ([1]; Colon KM12 (CL4017)): 6.5 and 6.4
-Log (GI50) ([1]; Leukemia CCRF-CEM(I) (CL7003)): 7.9
-Log (GI50) ([1]; Leukemia MOLT-4 (CL7006)): 7.9
-Log (GI50) ([1]; Melanoma LOX IMVI CL10001): 7.7 and 7.8
-Log (GI50) ([1]; Melanoma M14 (CL10014)): 7.5 and 7.8
-Log (GI50) ([1]; Melanoma SK-MEL-2 (CL10005)): 5.7 and 6.0
-Log (GI50) ([1]; Melanoma SK-MEL-5 (CL10007)): 7.2 and 7.5
-Log (GI50) ([1]; Melanoma UACC-62 (CL10020)): 7.8 and 7.7
-Log (GI50) ([1]; NCSLC NCI-H522 CL1003): 7.3 and 7.5
-Log (GI50) ([1]; NSCLC A549/ATCC (CL1004)): 7.0 and 7.3
-Log (GI50) ([1]; NSCLC HOP-62 (CL1026)): 7.9
-Log (GI50) ([1]; NSCLC NCI-H23(I) CL1001): 7.4
-Log (GI50) ([1]; NSCLC NCI-H460 CL1021): 7.7
-Log (GI50) ([1]; Ovarian IGROV1 CL6010): 6.3 and 6.4
-Log (GI50) ([1]; Ovarian SK-OV-3 CL6011): 7.1 and 7.2
-Log (GI50) ([1]; Prostate DU-145 CL11003): 8.0 and 7.8
-Log (GI50) ([1]; Renal A498 CL9013): 6.7 and 7.0
-Log (GI50) ([1]; Renal ACHN CL9023): 7.7 and 7.8
-Log (GI50) ([1]; Renal CAKI-1 CL9015): 7.9 and 7.8
-Log (GI50) ([1]; Renal SN12C CL9008): 7.6 and 7.5
-Log (GI50) ([1]; Renal TK10 CL9024): 5.1 and 5.3
-Log (GI50) ([1]; Renal UO-31 CL9004): 7.0 and 7.2
classification of cell line as Low(1), Medium(2) or High(3) sensitivity to compound ([2]; Breast HS-578T CL5006): 1
classification of cell line as Low(1), Medium(2) or High(3) sensitivity to compound ([2]; Breast MDA-MB-231 CL5005): 1
classification of cell line as Low(1), Medium(2) or High(3) sensitivity to compound ([2]; Breast MDA-MB-435 (CL5011)): 2
classification of cell line as Low(1), Medium(2) or High(3) sensitivity to compound ([2]; Breast MDA-N CL5012): 2
classification of cell line as Low(1), Medium(2) or High(3) sensitivity to compound ([2]; Breast T-47D (CL5014)): 3
classification of cell line as Low(1), Medium(2) or High(3) sensitivity to compound ([2]; CNS SF-268 CL12014): 3
classification of cell line as Low(1), Medium(2) or High(3) sensitivity to compound ([2]; CNS SF-539 CL12016): 3
classification of cell line as Low(1), Medium(2) or High(3) sensitivity to compound ([2]; CNS SNB-19 (CL12002)): 2
classification of cell line as Low(1), Medium(2) or High(3) sensitivity to compound ([2]; CNS SNB-75(I) CL12005): 2
classification of cell line as Low(1), Medium(2) or High(3) sensitivity to compound ([2]; Colon COLO-250 CL4010): 1
classification of cell line as Low(1), Medium(2) or High(3) sensitivity to compound ([2]; Colon HCT-15 CL4015): 1
classification of cell line as Low(1), Medium(2) or High(3) sensitivity to compound ([2]; Colon HCT-116 (CL4003)): 2
classification of cell line as Low(1), Medium(2) or High(3) sensitivity to compound ([2]; Colon HT29(I) CL4001): 2
classification of cell line as Low(1), Medium(2) or High(3) sensitivity to compound ([2]; Colon SW-620 (CL4009)): 2
classification of cell line as Low(1), Medium(2) or High(3) sensitivity to compound ([2]; Leukemia CCRF-CEM(I) (CL7003)): 3
classification of cell line as Low(1), Medium(2) or High(3) sensitivity to compound ([2]; Leukemia K562(I) CL7005): 2
classification of cell line as Low(1), Medium(2) or High(3) sensitivity to compound ([2]; Leukemia MOLT-4 (CL7006)): 3
classification of cell line as Low(1), Medium(2) or High(3) sensitivity to compound ([2]; Leukemia RPMI-8226(I) (CL7010)): 2
classification of cell line as Low(1), Medium(2) or High(3) sensitivity to compound ([2]; Melanoma LOX IMVI CL10001): 3
classification of cell line as Low(1), Medium(2) or High(3) sensitivity to compound ([2]; Melanoma MALME-3M CL10002): 2
classification of cell line as Low(1), Medium(2) or High(3) sensitivity to compound ([2]; Melanoma SK-MEL-2 (CL10005)): 1
classification of cell line as Low(1), Medium(2) or High(3) sensitivity to compound ([2]; Melanoma SK-MEL-5 (CL10007)): 2
classification of cell line as Low(1), Medium(2) or High(3) sensitivity to compound ([2]; Melanoma SK-MEL-28 (CL10008)): 1
classification of cell line as Low(1), Medium(2) or High(3) sensitivity to compound ([2]; Melanoma UACC-257 (CL10021)): 2
classification of cell line as Low(1), Medium(2) or High(3) sensitivity to compound ([2]; NSCLC A549/ATCC (CL1004)): 2
classification of cell line as Low(1), Medium(2) or High(3) sensitivity to compound ([2]; NSCLC HOP-62 (CL1026)): 3
classification of cell line as Low(1), Medium(2) or High(3) sensitivity to compound ([2]; NSCLC HOP-92 (CL1029)): 2
classification of cell line as Low(1), Medium(2) or High(3) sensitivity to compound ([2]; NSCLC NCI-H226 CL1013): 2
sensitivity class NSCLC NCI-H23(I) CL1001 [2]: 2
sensitivity class NSCLC NCI-H460 CL1021 [2]: 3
sensitivity class NSCLC NCI-H522 CL1003 [2]: 2
sensitivity class Ovarian OVCAR-4 CL6002 [2]: 1
sensitivity class Ovarian OVCAR-5 CL6003 [2]: 2
sensitivity class Ovarian OVCAR-8 CL6005 [2]: 2
sensitivity class Ovarian SK-OV-3 CL6011 ([2]; cell line Ovarian SK-OV-3, CL6011): 2
sensitivity class Prostate DU-145 CL11003 [2]: 3
sensitivity class Prostate PC-3(I) CL11001 ([2]; cell line Prostate PC-3(I), CL11001): 2
sensitivity class Renal 786-O CL9018 ([2]; cell line Renal 786-O, CL9018): 3
sensitivity class Renal A498 CL9013 [2]: 2
sensitivity class Renal ACHN CL9023 ([2]; cell line Renal ACHN, CL9023): 3
sensitivity class Renal CAKI-1 CL9015 ([2]; cell line Renal CAKI-1, CL9015): 3
sensitivity class Renal RXF-393 CL9016 [2]: 2
sensitivity class Renal TK10 CL9024 ([2]; cell line Renal TK10, CL9024): 1
sensitivity class Renal UO-31 CL9004 [2]: 2

N.N.[Cl][Pt][Cl] [cisplatin, cis-Diamminedichloroplatinum (II), reference compound]
-Log (GI50) ([1]; Breast MCF7(I) (CL5001)): 5.5
-Log (GI50) ([1]; Ovarian SK-OV-3 CL6011): 5.2
classification of cell line as Low(1), Medium(2) or High(3) sensitivity to compound ([2]; Breast BT-549 (CL5013)): 2
classification of cell line as Low(1), Medium(2) or High(3) sensitivity to compound ([2]; Breast HS-578T CL5006): 2
classification of cell line as Low(1), Medium(2) or High(3) sensitivity to compound ([2]; Breast MCF7/ADRr (CL5002)): 2
classification of cell line as Low(1), Medium(2) or High(3) sensitivity to compound ([2]; Breast MDA-MB-231 CL5005): 1
classification of cell line as Low(1), Medium(2) or High(3) sensitivity to compound ([2]; Breast MDA-N CL5012): 2
classification of cell line as Low(1), Medium(2) or High(3) sensitivity to compound ([2]; Breast T-47D (CL5014)): 1
classification of cell line as Low(1), Medium(2) or High(3) sensitivity to compound ([2]; CNS SF-268 CL12014): 3
classification of cell line as Low(1), Medium(2) or High(3) sensitivity to compound ([2]; CNS SF-539 CL12016): 2
classification of cell line as Low(1), Medium(2) or High(3) sensitivity to compound ([2]; CNS SNB-75(I) CL12005): 2
classification of cell line as Low(1), Medium(2) or High(3) sensitivity to compound ([2]; CNS U251(I) CL12009): 2
classification of cell line as Low(1), Medium(2) or High(3) sensitivity to compound ([2]; Colon COLO-250 CL4010): 1
classification of cell line as Low(1), Medium(2) or High(3) sensitivity to compound ([2]; Colon HCC-2998 (CL4002)): 2
classification of cell line as Low(1), Medium(2) or High(3) sensitivity to compound ([2]; Colon HCT-15 CL4015): 1
classification of cell line as Low(1), Medium(2) or High(3) sensitivity to compound ([2]; Colon HT29(I) CL4001): 1
classification of cell line as Low(1), Medium(2) or High(3) sensitivity to compound ([2]; Colon SW-620 (CL4009)): 2
classification of cell line as Low(1), Medium(2) or High(3) sensitivity to compound ([2]; Leukemia HL-60(I) (CL7008)): 3
classification of cell line as Low(1), Medium(2) or High(3) sensitivity to compound ([2]; Leukemia K562(I) CL7005): 2
classification of cell line as Low(1), Medium(2) or High(3) sensitivity to compound ([2]; Leukemia RPMI-8226(I) (CL7010)): 2
classification of cell line as Low(1), Medium(2) or High(3) sensitivity to compound ([2]; Melanoma LOX IMVI CL10001): 3
classification of cell line as Low(1), Medium(2) or High(3) sensitivity to compound ([2]; Melanoma M14 (CL10014)): 2
sensitivity class NSCLC NCI-H23(I) CL1001 [2]: 3
sensitivity class NSCLC NCI-H460 CL1021 [2]: 3
sensitivity class NSCLC NCI-H522 CL1003 [2]: 2
sensitivity class Ovarian IGROV1 CL6010 ([2]; cell line Ovarian IGROV1, CL6010): 2
sensitivity class Ovarian OVCAR-4 CL6002 [2]: 2
sensitivity class Ovarian OVCAR-5 CL6003 [2]: 2
sensitivity class Ovarian OVCAR-8 CL6005 [2]: 2
sensitivity class Prostate DU-145 CL11003 [2]: 2
sensitivity class Renal A498 CL9013 [2]: 1
sensitivity class Renal RXF-393 CL9016 [2]: 2
sensitivity class Renal UO-31 CL9004 [2]: 2
